Legend:
murine COX-2 = target: T1, murine COX-2 (Mus musculus, UniProt Q05769); test: In vitro purified COX-2 inhibition assay (TLC, 14C-arachidonic acid); assay type: biochemical; conditions: for COX-2 Selectivity Index (COX-1 IC50/COX-2 IC50): in vitro, purified enzymes
T1 sequence (Q05769 18-604): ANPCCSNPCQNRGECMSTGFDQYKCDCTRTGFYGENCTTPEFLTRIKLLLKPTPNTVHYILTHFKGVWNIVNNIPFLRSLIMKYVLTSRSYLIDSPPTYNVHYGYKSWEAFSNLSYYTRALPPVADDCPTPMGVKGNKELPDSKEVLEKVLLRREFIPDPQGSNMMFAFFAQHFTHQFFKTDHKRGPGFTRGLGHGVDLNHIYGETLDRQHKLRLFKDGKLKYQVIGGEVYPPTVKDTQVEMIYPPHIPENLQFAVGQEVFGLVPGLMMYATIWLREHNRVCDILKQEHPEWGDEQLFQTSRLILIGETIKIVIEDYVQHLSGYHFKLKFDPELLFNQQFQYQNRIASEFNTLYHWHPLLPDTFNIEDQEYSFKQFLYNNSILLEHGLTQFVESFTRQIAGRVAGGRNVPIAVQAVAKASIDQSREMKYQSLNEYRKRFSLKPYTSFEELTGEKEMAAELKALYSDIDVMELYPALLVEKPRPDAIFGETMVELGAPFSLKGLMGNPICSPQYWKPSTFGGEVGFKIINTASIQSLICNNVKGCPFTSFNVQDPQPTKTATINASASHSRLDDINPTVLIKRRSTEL
Procedure: The in vitro cyclooxygenase (ovine COX-1 or human COX-2) inhibitory activities of these probes were tested by a previously described TLC assay (FIGS. 19-21). Briefly, reaction mixtures of 200 μL consisted of hematin-reconstituted protein in 100 mM Tris-HCl, pH 8.0, 500 μM phenol, and [1-^14C]arachidonic acid (50 μM, about 55-57 mCi/mmol, Perkin Elmer).
Inhibition Assay Using Purified COX-1 and COX-2. Inhibition of purified ovine COX-1 or mouse COX-2 by test compounds was assayed by a previously described method, which quantifies the conversion of [1-^14C]arachidonic acid to [1-^14C]prostaglandin products. Reaction mixtures of 200 ∝L consisted of hematin-reconstituted protein in 100 mM Tris-HCl, pH 8.0, 500 μM phenol, and [1-^14C]arachidonic acid (50 μM, ˜55-57 mCi/mmol, Perkin Elmer). For the time-dependent inhibition assay, hematin-reconstituted COX-1 ([…]) was preincubated at 25° C. for 17 min and 37° C. for 3 min with varying inhibitor concentrations in dimethylsulfoxide followed by the addition of [1-^14C]arachidonic acid (50 μM) for 30 s at 37° C. Reactions were terminated by solvent extraction in diethyl ether:methanol:1 M citrate buffer, pH 4.0 (30:4:1). The phases were separated by centrifugation at 2000 g for 2 min, and the organic phase was spotted on a thin-layer chromatography plate (EMD Kieselgel 60, VWR). The plate was developed in ethyl acetate:methylene chloride:glacial AcOH (75:25:1) at 4° C. Radiolabeled products were quantified with a radioactivity scanner (Bioscan, Inc., Washington, D.C.).

[1] = Fluorometry: extinction, quantum yield, fluorescence in DMSO/EtOH; assay type: physicochemical
Procedure: The TEMPO- and PROXYL-fluorocoxib probes are non-fluorescent (Φfl<0.3) in their non-trapped form, whereas fluorocoxib A or B are highly fluorescent (Φfl[…]) (FIG. 13). However, the absorbance and fluorescence of the TEMPO- and PROXYL-fluorocoxib probes increases in a time-dependent fashion when incubated in a DMSO/EtOH solution (FIGS. 14-15). Referring to FIG. 15, it is noted that at about 16 hours, fluorescence (ex 586 nm) read about 120,000 cps at 607 nm. Turning to FIG. 16, as compared to 5-ROX acid, which had extinction of 36/mM/cm at 580 nm and quantum yield of 0.94 at 604 nm, and fluorocoxib A, which had extinction of 45/mM/cm at 579 nm and quantum yield of 0.93 at 602 nm, fluorocoxib Q1 had extinction of less than 0.4/mM/cm at 586 nm and quantum yield of less than 0.36 at 607 nm. Without wishing to be bound by theory, it is believed that the time-dependent increase in fluorescence and measured fluorescence at 607 nm is the result of reduction/oxidation of fluorocoxib Q1 in the DMSO/EtOH solution (FIG. 16).
Fluorometry. Steady state fluorescence excitation and emission spectra were determined for each compound with a Spex 1681 Fluorolog spectrofluorometer, equipped with a 450 W xenon arc lamp. […]

1483 HNSCC cells = test: Fluorescence microscopy of 1483 HNSCC cells; assay type: cell-based, human; conditions: 1483 cells, 0.5 h preincubation
Procedure: To test the specific activation of probes in cancer cells, compound 1 was incubated at selected time points (0.5, 1.0, 2.0, 3.0 h). After washout, the cells were imaged under fluorescence microscope.
Fluorescence microscopy of 1483 HNSCC cells. Fluorescence imaging of human 1483 HNSCC cells by compound 1 was performed by a previously described method. Briefly, human 1483 HNSCC cells were grown to 60% confluence. The cells were incubated in 2.0 ml Hank's balanced salt solution (HBSS)/Tyrode's with 200 nM compound 1 for 30 min at 37° C. The cells were then washed briefly three times and incubated in HBSS/Tyrode's for 30 min at 37° C. Following the required washout period, the cells were imaged in 2.0 ml fresh HBSS/Tyrode's on a Zeiss Axiovert 25 Microscope with the propidium iodide filter (0.5-1.0 sec exposure, gain of 2).

COc1ccc2c(c1)c(CC(=O)NCCCCNC(=O)c1ccc(C3=c4cc5c6c(c4Oc4c3cc3c7c4CCCN7CCC3)CCC[N+]=6CCC5)c(C(=O)NC3CC(C)(C)N([O])C(C)(C)C3)c1)c(C)n2C(=O)c1ccc(Cl)cc1 [Compound 1]
IC50 (murine COX-2; COX-2 IC50, in vitro purified cox assay): 303 nM
COX-2 Selectivity Index (COX-1 IC50/COX-2 IC50) (murine COX-2): >83
IC50 (murine COX-2; mCOX-2 IC50, purified murine COX-2 (63 nM), inhibitor 20 min, then 1-14C-AA (50 μM) 37° C. 30 s, duplicates): 300 nM

COc1ccc2c(c1)c(CC(=O)NCCCCNC(=O)c1ccc(C3=c4cc5c6c(c4Oc4c3cc3c7c4CCCN7CCC3)CCC[N+]=6CCC5)c(C(=O)[O-])c1)c(C)n2C(=O)c1ccc(Cl)cc1 [Fluorocoxib A, reference compound]
COX-2 Selectivity Index (COX-1 IC50/COX-2 IC50) (murine COX-2): >35
extinction ([1]; at 580 nm (5-ROX acid), 579 nm (fluorocoxib A), 586 nm (fluorocoxib Q1)): 45 mM⁻¹ cm⁻¹
quantum yield ([1]; at 604 nm (5-ROX acid), 602 nm (fluorocoxib A), 607 nm (fluorocoxib Q1)): 0.93
intracellular fluorescence (1483 HNSCC cells): bright fluorescence
